Assay results published in the kinase profiling compilation of Christmann-Franck et al. (2016).

Assays:
Assay in all cases: KINOMEscan competition binding
Details in all cases: compound 0.5 µM
[1] = target: ANKK1 (human) (UniProt Q8NFD2)
[2] = target: AURKC (human) (UniProt Q9UQB9)
[3] = target: CDK11B (human) (UniProt P21127)
[4] = target: CDK15 (human) (UniProt Q96Q40)
[5] = target: CDK2 (human) (UniProt P24941)
[6] = target: CDK5 (human) (UniProt Q00535)
[7] = target: CDKL2 (human) (UniProt Q92772)
[8] = target: CHEK2 (human) (UniProt O96017)
Chain of CHEK2 (human) (O96017 whole entry, looked up): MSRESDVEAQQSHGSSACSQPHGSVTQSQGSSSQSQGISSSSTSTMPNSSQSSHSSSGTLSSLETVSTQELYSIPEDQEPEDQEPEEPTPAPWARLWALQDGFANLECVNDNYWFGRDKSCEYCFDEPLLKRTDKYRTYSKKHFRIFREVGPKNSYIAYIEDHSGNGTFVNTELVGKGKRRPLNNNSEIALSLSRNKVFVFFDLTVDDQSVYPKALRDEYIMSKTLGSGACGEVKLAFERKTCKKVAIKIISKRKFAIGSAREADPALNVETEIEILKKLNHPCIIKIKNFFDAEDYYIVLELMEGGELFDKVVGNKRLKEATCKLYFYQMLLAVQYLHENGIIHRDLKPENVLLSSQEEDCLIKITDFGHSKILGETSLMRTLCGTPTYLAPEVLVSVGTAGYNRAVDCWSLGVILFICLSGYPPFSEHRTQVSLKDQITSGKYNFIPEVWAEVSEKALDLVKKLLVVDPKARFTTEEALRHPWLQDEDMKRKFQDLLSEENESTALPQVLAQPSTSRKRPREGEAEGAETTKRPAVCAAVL

[9] = target: CSK (human) (UniProt P41240)
[10] = target: CSNK1A1L (human) (UniProt Q8N752)
Chain of CSNK1A1L (human) (Q8N752 whole entry, looked up): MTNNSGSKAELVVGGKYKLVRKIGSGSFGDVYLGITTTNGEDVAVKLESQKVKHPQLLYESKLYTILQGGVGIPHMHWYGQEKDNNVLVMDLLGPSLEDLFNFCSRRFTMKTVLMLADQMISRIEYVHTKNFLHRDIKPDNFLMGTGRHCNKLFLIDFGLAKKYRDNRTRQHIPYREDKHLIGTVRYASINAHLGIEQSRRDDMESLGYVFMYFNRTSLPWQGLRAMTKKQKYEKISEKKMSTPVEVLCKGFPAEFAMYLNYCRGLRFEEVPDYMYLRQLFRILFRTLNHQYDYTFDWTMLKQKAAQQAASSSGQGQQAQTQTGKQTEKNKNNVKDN

[11] = target: EPHB1 (human) (UniProt P54762)
Chain of EPHB1 (human) (P54762 whole entry, looked up): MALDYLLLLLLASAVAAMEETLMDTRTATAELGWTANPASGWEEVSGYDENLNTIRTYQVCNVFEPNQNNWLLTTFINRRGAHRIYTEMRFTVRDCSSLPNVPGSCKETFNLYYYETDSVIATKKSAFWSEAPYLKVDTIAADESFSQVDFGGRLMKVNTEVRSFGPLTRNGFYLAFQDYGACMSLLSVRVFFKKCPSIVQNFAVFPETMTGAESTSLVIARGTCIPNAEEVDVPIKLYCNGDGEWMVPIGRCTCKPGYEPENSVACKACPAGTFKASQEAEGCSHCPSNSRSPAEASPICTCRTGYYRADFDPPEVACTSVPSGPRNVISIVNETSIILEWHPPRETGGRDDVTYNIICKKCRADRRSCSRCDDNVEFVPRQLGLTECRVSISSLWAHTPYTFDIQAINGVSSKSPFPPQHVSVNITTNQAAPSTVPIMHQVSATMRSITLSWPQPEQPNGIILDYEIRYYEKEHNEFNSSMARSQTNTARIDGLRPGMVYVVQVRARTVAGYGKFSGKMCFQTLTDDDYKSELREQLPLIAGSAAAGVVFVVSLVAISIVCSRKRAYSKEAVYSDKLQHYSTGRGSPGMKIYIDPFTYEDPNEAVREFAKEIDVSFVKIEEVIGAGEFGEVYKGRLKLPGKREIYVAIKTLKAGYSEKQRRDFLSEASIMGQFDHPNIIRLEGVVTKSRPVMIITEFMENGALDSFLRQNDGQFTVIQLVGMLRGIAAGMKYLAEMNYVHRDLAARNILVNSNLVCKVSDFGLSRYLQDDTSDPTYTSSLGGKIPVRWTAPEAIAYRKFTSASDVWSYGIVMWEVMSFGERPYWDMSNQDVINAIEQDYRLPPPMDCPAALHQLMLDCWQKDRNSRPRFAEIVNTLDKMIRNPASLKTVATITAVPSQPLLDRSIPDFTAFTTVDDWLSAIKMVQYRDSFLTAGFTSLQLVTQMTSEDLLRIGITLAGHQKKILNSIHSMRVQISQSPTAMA

[12] = target: FES (human) (UniProt P07332)
[13] = test system: FLT3 (human), P36888 [D835Y]
[14] = test system: FLT3 (human), P36888 [K663Q]
[15] = target: ICK (human) (UniProt Q9UPZ9)
[16] = target: JAK1 JH1 catalytic (human) (UniProt P23458)
[17] = target: JAK3 JH1 catalytic (human) (UniProt P52333)
[18] = test system: KIT (human), P10721 [L576P]
[19] = test system: KIT (human), P10721 [V559D/V654A]
[20] = target: MAP3K11 (human) (UniProt Q16584)
[21] = target: MKNK2 (human) (UniProt Q9HBH9)
Chain of MKNK2 (human) (Q9HBH9 whole entry, looked up): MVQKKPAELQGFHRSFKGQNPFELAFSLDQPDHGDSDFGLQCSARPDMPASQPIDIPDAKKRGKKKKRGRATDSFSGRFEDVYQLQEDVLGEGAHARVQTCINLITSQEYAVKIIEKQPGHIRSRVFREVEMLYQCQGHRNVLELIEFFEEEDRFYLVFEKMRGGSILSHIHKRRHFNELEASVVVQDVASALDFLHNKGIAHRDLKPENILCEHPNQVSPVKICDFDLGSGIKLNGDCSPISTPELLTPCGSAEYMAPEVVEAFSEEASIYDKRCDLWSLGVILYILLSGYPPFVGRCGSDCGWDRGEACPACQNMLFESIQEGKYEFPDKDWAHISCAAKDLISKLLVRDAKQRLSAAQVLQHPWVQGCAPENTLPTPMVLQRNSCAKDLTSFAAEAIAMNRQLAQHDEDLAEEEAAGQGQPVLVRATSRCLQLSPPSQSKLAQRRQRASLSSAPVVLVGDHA

[22] = target: MST4 (human) (UniProt Q9P289)
Chain of MST4 (human) (Q9P289 whole entry, looked up): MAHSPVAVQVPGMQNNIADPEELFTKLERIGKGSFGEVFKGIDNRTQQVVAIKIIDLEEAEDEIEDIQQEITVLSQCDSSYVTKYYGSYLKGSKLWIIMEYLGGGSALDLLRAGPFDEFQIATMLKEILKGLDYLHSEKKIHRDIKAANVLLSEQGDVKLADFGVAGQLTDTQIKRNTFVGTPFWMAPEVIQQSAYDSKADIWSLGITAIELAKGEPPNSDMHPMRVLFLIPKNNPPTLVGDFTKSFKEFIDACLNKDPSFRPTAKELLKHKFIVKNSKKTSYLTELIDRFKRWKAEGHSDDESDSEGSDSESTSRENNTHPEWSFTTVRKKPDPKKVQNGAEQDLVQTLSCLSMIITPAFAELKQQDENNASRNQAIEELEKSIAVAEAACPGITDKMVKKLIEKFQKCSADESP

[23] = target: MYLK2 (human) (UniProt Q9H1R3)
Chain of MYLK2 (human) (Q9H1R3 whole entry, looked up): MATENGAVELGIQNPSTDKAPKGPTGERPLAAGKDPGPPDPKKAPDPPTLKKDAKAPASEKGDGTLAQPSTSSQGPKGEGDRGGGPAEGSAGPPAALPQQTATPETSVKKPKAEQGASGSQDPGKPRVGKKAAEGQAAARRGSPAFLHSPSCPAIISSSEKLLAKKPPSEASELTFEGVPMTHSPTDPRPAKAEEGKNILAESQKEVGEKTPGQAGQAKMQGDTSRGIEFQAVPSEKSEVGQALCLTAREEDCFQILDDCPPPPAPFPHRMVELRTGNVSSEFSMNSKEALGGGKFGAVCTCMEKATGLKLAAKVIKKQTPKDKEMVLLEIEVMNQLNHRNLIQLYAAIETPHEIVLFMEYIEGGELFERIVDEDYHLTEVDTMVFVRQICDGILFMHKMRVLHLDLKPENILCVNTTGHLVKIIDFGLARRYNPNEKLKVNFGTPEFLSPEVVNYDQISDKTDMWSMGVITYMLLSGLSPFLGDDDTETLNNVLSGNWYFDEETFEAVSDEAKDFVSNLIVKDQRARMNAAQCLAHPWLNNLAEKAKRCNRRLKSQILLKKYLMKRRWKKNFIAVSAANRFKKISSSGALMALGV

[24] = target: NUAK2 (human) (UniProt Q9H093)
[25] = target: PHKG1 (human) (UniProt Q16816)
[26] = target: PHKG2 (human) (UniProt P15735)
Chain of PHKG2 (human) (P15735 whole entry, looked up): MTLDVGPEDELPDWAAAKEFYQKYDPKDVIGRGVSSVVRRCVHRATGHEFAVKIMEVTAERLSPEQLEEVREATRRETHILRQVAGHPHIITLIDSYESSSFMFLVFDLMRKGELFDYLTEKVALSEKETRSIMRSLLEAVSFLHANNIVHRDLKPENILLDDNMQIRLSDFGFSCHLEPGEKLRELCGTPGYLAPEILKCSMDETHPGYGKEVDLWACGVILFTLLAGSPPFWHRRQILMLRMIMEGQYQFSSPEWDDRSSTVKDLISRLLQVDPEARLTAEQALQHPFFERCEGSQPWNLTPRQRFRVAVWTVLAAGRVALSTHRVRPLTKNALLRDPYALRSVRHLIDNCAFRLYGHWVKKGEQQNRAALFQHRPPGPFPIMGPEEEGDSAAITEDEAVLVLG

[27] = test system: PIK3CA (human), P42336 [H1047Y]
[28] = target: PRKX (human) (UniProt P51817)
[29] = test system: RET (human), P07949 [V804M]
[30] = target: RIOK2 (human) (UniProt Q9BVS4)
[31] = target: RIPK1 (human) (UniProt Q13546)
[32] = target: RIPK4 (human) (UniProt P57078)
[33] = target: RPS6KA4 KD1 (human) (UniProt O75676)
[34] = target: RPS6KB1 (human) (UniProt P23443)
[35] = target: TAOK1 (human) (UniProt Q7L7X3)
[36] = target: TEK (human) (UniProt Q02763)
[37] = target: TIE1 (human) (UniProt P35590)
[38] = target: TNK2 (human) (UniProt Q07912)
[39] = target: TYK2 JH2 pseudokinase (human) (UniProt P29597)
[40] = target: ULK1 (human) (UniProt O75385)

Chain of ANKK1 (human) (Q8NFD2 whole entry, looked up): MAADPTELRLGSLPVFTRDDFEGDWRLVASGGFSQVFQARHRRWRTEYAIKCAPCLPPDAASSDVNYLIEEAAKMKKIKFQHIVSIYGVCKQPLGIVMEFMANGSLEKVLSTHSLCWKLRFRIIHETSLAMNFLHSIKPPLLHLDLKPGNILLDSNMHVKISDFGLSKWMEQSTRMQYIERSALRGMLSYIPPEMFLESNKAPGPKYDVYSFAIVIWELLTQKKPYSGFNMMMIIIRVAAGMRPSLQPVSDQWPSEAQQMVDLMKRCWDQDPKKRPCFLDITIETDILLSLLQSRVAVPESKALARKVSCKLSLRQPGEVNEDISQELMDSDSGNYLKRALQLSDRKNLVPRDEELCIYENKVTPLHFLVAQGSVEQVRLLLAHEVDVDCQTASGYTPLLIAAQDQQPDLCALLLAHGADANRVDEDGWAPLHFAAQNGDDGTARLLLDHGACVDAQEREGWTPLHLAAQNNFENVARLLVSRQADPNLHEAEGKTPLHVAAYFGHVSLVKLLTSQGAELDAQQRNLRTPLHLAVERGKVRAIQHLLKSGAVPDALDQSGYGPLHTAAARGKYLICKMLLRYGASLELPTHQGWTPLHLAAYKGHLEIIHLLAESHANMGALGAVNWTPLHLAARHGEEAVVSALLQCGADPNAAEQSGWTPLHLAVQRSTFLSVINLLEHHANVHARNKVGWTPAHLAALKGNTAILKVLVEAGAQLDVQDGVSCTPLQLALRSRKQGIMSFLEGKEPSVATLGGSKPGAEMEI
Chain of AURKC (human) (Q9UQB9 whole entry, looked up): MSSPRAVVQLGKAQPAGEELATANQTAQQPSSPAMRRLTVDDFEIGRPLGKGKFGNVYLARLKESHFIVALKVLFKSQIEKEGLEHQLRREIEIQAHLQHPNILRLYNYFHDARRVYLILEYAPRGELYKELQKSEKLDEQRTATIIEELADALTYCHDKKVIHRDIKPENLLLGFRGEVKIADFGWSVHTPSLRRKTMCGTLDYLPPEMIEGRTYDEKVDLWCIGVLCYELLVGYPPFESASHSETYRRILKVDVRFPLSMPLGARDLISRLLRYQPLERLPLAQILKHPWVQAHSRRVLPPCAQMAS

SMILES: Cn1c2ccccc2c2c3c(c4c5ccccc5n(CCC#N)c4c21)CNC3=O
- kinase still bound, per cent of control [1]: 70%
- kinase still bound, per cent of control [2]: 8%
- kinase still bound, per cent of control [3]: 100%
- kinase still bound, per cent of control [4]: 100%
- kinase still bound, per cent of control [5]: 36%
- kinase still bound, per cent of control [6]: 61%
- kinase still bound, per cent of control [7]: 26%
- kinase still bound, per cent of control [8]: 31%
- kinase still bound, per cent of control [9]: 100%
- kinase still bound, per cent of control [10]: 100%
- kinase still bound, per cent of control [11]: 97%
- kinase still bound, per cent of control [12]: 85%
- kinase still bound, per cent of control [13]: 0%
- kinase still bound, per cent of control [14]: 0.95%
- kinase still bound, per cent of control [15]: 20%
- kinase still bound, per cent of control [16]: 10%
- kinase still bound, per cent of control [17]: 0%
- kinase still bound, per cent of control [18]: 46%
- kinase still bound, per cent of control [19]: 100%
- kinase still bound, per cent of control [20]: 17%
- kinase still bound, per cent of control [21]: 11%
- kinase still bound, per cent of control [22]: 100%
- kinase still bound, per cent of control [23]: 58%
- kinase still bound, per cent of control [24]: 4.4%
- kinase still bound, per cent of control [25]: 0.1%
- kinase still bound, per cent of control [26]: 4.4%
- kinase still bound, per cent of control [27]: 100%
- kinase still bound, per cent of control [28]: 53%
- kinase still bound, per cent of control [29]: 0%
- kinase still bound, per cent of control [30]: 64%
- kinase still bound, per cent of control [31]: 100%
- kinase still bound, per cent of control [32]: 5.2%
- kinase still bound, per cent of control [33]: 46%
- kinase still bound, per cent of control [34]: 23%
- kinase still bound, per cent of control [35]: 8%
- kinase still bound, per cent of control [36]: 99%
- kinase still bound, per cent of control [37]: 100%
- kinase still bound, per cent of control [38]: 18%
- kinase still bound, per cent of control [39]: 84%
- kinase still bound, per cent of control [40]: 92%
